In patent US20030224978A1, “Compounds and methods for modulating apoptosis” (McGill University, priority 1996, published 2003):
Entries after “also recorded” stand apart in the source; their conditions may differ. Positions of bridges follow the written chain, without caps; N, C: chain ends. Residues, ends and D or L forms follow the SMILES beside them.

How the values were obtained:
N-cadherin = biological target: T1, N-cadherin (Gallus gallus, UniProt P10288); assay: Neurite outgrowth of mouse cerebellar neurons on 3T3 cells expressing N-cadherin (Example 2); assay type: cell-based
T1 construct: expressed in transfected cells; host or cells: 3T3 fibroblasts
T1 sequence (P10288 165-912): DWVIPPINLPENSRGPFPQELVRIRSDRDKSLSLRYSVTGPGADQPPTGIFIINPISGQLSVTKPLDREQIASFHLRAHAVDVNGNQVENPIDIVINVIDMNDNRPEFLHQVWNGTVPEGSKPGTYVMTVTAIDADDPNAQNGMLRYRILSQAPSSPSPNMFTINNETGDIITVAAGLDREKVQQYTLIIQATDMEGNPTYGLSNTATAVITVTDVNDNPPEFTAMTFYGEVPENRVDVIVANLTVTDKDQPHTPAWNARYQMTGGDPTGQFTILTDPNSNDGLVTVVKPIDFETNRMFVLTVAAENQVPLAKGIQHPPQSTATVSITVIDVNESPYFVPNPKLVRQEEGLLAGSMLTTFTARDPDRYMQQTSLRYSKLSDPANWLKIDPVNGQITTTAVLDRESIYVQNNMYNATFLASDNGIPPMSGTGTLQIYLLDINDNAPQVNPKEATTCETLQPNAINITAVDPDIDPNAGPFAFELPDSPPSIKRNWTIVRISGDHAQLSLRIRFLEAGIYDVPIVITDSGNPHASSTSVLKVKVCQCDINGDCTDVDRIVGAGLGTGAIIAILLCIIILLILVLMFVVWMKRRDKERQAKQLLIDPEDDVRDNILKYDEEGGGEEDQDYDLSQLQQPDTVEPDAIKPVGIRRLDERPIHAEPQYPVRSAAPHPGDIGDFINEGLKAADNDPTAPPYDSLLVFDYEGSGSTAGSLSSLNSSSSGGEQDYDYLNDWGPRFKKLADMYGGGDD
From the text: Within a representative neurite outgrowth assay, neurons may be cultured on a monolayer of cells (e.g., 3T3) that express N-cadherin. […] For example, neurons may be cultured on monolayers of 3T3 cells transfected with cDNA encoding N-cadherin essentially as described by Doherty and Walsh, Curr. Op. Neurobiol. 4:49-55, 1994; Williams et al., Neuron 13:583-594, 1994; Hall et al., Cell Adhesion and Commun. 3:441-450, 1996; Doherty and Walsh, Mol. Cell. Neurosci. 8:99-111, 1994; and Safell et al., Neuron 18:231-242, 1997. Briefly, monolayers of control 3T3 fibroblasts and 3T3 fibroblasts that express N-cadherin may be established by overnight culture of 80,000 cells in individual wells of an 8-chamber well tissue culture slide. 3000 cerebellar neurons isolated from post-natal day 3 mouse brains may be cultured for 18 hours on the various monolayers in control media (SATO/2%FCS), or media supplemented with various concentrations of the modulating agent or control peptide. The cultures may then be fixed and stained for GAP43 which specifically binds to the neurons and their neurites. The length of the longest neurite on each GAP43 positive neuron may be measured by computer assisted morphometry.
A modulating agent that modulates N-cadherin-mediated cell adhesion may inhibit or enhance such neurite outgrowth. Under the conditions described above, the presence of 500 μg/mL of a modulating agent that disrupts neural cell adhesion should result in a decrease in the mean neurite length by at least 50%, relative to the length in the absence of modulating agent or in the presence of a negative control peptide. Alternatively, the presence of 500 μg/mL of a modulating agent that enhances neural cell adhesion should result in an increase in the mean neurite length by at least 50%.
Neurons were cultured on monolayers of 3T3 cells transfected with cDNA encoding N-cadherin essentially as described by Doherty and Walsh, Curr. Op. Neurobiol. […] The length of the longest neurite on each GAP43 positive neuron was then measured by computer assisted morphometry.

MDA-MB231 = assay type: cell-based, human; conditions: 3 h
chick N-cadherin = biological target: T2, chick N-cadherin (Gallus gallus, UniProt P10288); assay: N-cadherin dependent neurite outgrowth of rat cerebellar neurons on N-cadherin expressing 3T3 cells (Example 14); assay type: cell-based; conditions: for inhibitory activity on N-cadherin dependent neurite outgrowth, in words: Tables 8 and 9, 250 or 125 μg/mL
T2 construct: expressed in transfected cells; host or cells: 3T3 fibroblasts
T2 sequence (P10288 165-912): T1 sequence (P10288 165-912)

Row | SMILES | effect on neurite outgrowth on 3T3 cells expressing N-cadherin (N-cadherin; 500 μg/mL, 18 hours) | IC50 (MDA-MB231) [µM] | inhibition at 250 µg/mL (chick N-cadherin; NIH3T3, 250 μg/mL, 16-18 hours) [%] | inhibitory activity on N-cadherin dependent neurite outgrowth, in words (chick N-cadherin) | also measured
1 | CC(=O)N[C@H]1CSSC[C@@H](C(N)=O)NC(=O)[C@H](C(C)C)NC(=O)CNC(=O)[C@H](Cc2c[nH]cn2)NC1=O [N-Ac-CHGVC-NH2, reference compound] | had no effect | > 100 | 4.8 ± 5.3 | – | –
2 | CC(=O)N[C@H]1CSSC[C@@H](C(N)=O)NC(=O)[C@H](C(C)C)NC(=O)[C@H](C)NC(=O)[C@H](Cc2c[nH]cn2)NC1=O [N-Ac-CHAVC-NH2, N-Ac-Cys-His-Ala-Val-Cys-NH2] | completely inhibited neurite outgrowth | > 100 | 68.2 | – | effect on neurite outgrowth on 3T3 cells expressing N-cadherin (N-cadherin; 50 μg/mL, dose-response study): significantly inhibited neurite outgrowth; % Inhibition of N-cadherin dependent neurite outgrowth (chick N-cadherin; 250 μg/mL, 16-18 hours): 68.2 ± 5.1 (4) %; inhibition at 125 µg/mL (chick N-cadherin; NIH3T3, 125 μg/mL, 16-18 hours): 33.2%; effect on the N-cadherin response, in words (chick N-cadherin; concentrations up to 62 μg/ml): no significant effect on the N-cadherin response; EC50 (chick N-cadherin; from dose-response curve): 220 µM
3 | CC(=O)N[C@H]1CSSC[C@@H](C(N)=O)NC(=O)[C@H](CC(=O)O)NC(=O)[C@H](C(C)C)NC(=O)[C@H](C)NC(=O)[C@H](Cc2c[nH]cn2)NC(=O)[C@H](C)NC1=O [N-Ac-CAHAVDC-NH2, N-Ac-Cys-Ala-His-Ala-Val-Asp-Cys-NH2] (Ac-CAHAVDC-NH2; disulfide 1-7) | – | – | 13.3 ± 8.3 | completely eliminated inhibitory activity | –
4 | CC[C@H](C)[C@@H]1NC(=O)[C@H](CC(=O)O)NC(=O)[C@H](C(C)C)NC(=O)[C@H](C)NC(=O)[C@H](Cc2c[nH]cn2)NC(=O)[C@H](C)NC(=O)[C@@H](NC(C)=O)CSSC[C@@H](C(N)=O)NC1=O (Ac-CAHAVDIC-NH2; disulfide 1-8) | – | – | 89.4 | reduced, but did not eliminate, the activity; also recorded: potent inhibitors of neurite outgrowth | activity on N-cadherin dependent neurite outgrowth at lower concentration, in words (chick N-cadherin; concentrations of 125 µg/mL or below): lost activity
5 | CC(=O)N[C@H]1CSSC[C@@H](C(N)=O)NC(=O)[C@H](CO)NC(=O)[C@H](C(C)C)NC(=O)[C@H](C)NC(=O)[C@H](Cc2c[nH]cn2)NC1=O [N-Ac-CHAVSC-NH2, N-Ac-Cys-His-Ala-Val-Ser-Cys-NH2] (Ac-CHAVSC-NH2; disulfide 1-6) | – | – | -2.5 ± 7.4 | – | reduction in inhibitory activity on flanking HAV with E-cadherin amino acids (chick N-cadherin; Table 8, 250 μg/mL): complete
